Measurements taken from patent US5166204A, “Isoindole derivatives and salts thereof and antitumor agent comprising the same” (Toyama Chemical Co., Ltd., priority 1989, dated 1992).
≈ marks a conversion by molar mass, not a printed value.

Each molecule was assayed on HeLa S-3 cells (assay: HeLa S-3 cell growth inhibition test). Conditions: Homo sapiens, 96 h, read-out: minimum growth inhibition concentration (MIC).
Type: cell-based
Protocol: (a) HeLa S-3 Cell Growth Inhibition Test
A test compound was appropriately diluted with a liquid medium (a minimum essential medium containing a 10% fecal calf serum). The resulting liquid was poured into each well of a 96-well micro titer plate, in an amount of 0.1 ml/well. Then, HeLa S-3 cells were diluted with the same liquid medium so that the cell concentration became 2×10^4 cells/ml, and the resulting liquid was poured into each well of the above plate in an amount of 0.1 ml/well. The resulting plate was allowed to stand in a CO2 gas incubator of 37° C. for 4 days, to effect incubation. After the incubation, the supernatant liquid in each well was removed and fixation by ethanol was effected for 10 minutes. The fixed cells were tinted with a Giemsa's staining solution to determine the minimum growth inhibition concentration (MIC) of test compound for HeLa S-3 cells.

Row | Compound | MIC [µg/mL]
1 | Cc1cc2c(c3c1[nH]c1ccc(OC(=O)N4CCOCC4)cc13)C(=O)N(CCN(C)C)C2=O [compound 50] | 3.13 (≈ 6.95 µM)
2 | Cc1cc2c(c3c1[nH]c1ccc(OC(=O)N4CCC(N5CCCCC5)CC4)cc13)C(=O)N(CCN(C)C)C2=O [compound 55] | 2.5 (≈ 4.7 µM)
3 | Cc1cc2c(c3c1[nH]c1ccc(OC(=O)N4CCCCC4)cc13)C(=O)N(CCN(C)C)C2=O [compound 44] | 0.8 (≈ 1.78 µM)
4 | Cc1c2c(c3c([nH]c4ccc(OC(=O)N5CCC(N6CCCCC6)CC5)cc43)c1C)C(=O)N(CCN(C)C)C2=O [compound 75] | 0.08 (≈ 0.147 µM)

Same assay, conditions: Homo sapiens, 96 h; HeLa S-3 cells, 37° C., 4 days, Giemsa's staining; read-out: minimum growth inhibition concentration (MIC)

Row | MIC [µg/mL] | Compound
5 | 1.56 (≈ 3.96 µM) | CNC(=O)n1c2ccc(O)cc2c2c3c(cc(C)c21)C(=O)N(CCN(C)C)C3=O [compound 95]
6 | 2.5 (≈ 7.11 µM) | Cc1c2c(c(C)c3c1[nH]c1ccc(O)cc13)C(=O)N(CCN(C)C)C2=O [compound 100]
7 | 1.25 (≈ 3.19 µM) | COc1ccc2[nH]c3c(C4CCC4)cc4c(c3c2c1)C(=O)N(CCN(C)C)C4=O [compound 58]
8 | 3.13 (≈ 8.25 µM) | COc1ccc2c(c1)c1c3c(ccc1n2C(C)=O)C(=O)N(CCN(C)C)C3=O [compound 21]
9 | 6.25 (≈ 19.2 µM) | CN(C)CCN1C(=O)c2cc3[nH]c4cccc(F)c4c3cc2C1=O [compound 96]
10 | 0.4 (≈ 1.09 µM) | COc1ccc2sc3c(C)cc4c(c3c2c1)C(=O)N(CCN(C)C)C4=O [compound 56]
11 | 0.04 (≈ 0.0963 µM) | CN(C)CCN1C(=O)c2cc(Oc3ccccc3)c3[nH]c4ccc(O)cc4c3c2C1=O [compound 78]
12 | 5 (≈ 12.7 µM) | COc1ccc2[nH]c3c(C)cc4c(c3c2c1)C(=O)N(CCN1CCOCC1)C4=O [compound 87]
13 | 0.04 (≈ 0.119 µM) | Cc1cc2[nH]c3ccc(O)cc3c2c2c1C(=O)N(CCN(C)C)C2=O [compound 25]
14 | 0.4 (≈ 1.14 µM) | COc1ccc2c(c1)c1c3c(ccc1n2C)C(=O)N(CCN(C)C)C3=O [compound 19]
15 | 1.56 (≈ 4.27 µM) | CCn1c2ccc(OC)cc2c2c3c(ccc21)C(=O)N(CCN(C)C)C3=O [compound 20]
16 | 3.13 (≈ 9.74 µM) | Cc1ccc2[nH]c3ccc4c(c3c2c1)C(=O)N(CCN(C)C)C4=O [compound 12]
17 | 0.8 (≈ 2.39 µM) | Cc1c2c(c(C)c3c1[nH]c1ccccc13)C(=O)N(CCN(C)C)C2=O [compound 98]
18 | 2.5 (≈ 6.24 µM) | CN(C)CCN1C(=O)c2c(-c3ccncc3)cc3[nH]c4ccc(O)cc4c3c2C1=O [compound 84]
19 | 0.8 (≈ 2.09 µM) | CN(C)CCN1C(=O)c2cc(-c3ccccc3)c3[nH]c4ccccc4c3c2C1=O [compound 7]
20 | 0.2 (≈ 0.569 µM) | COc1ccc2[nH]c3c(C)cc4c(c3c2c1)C(=O)N(CCN(C)C)C4=O [compound 16]
21 | 2.5 (≈ 7.71 µM) | CN(C)CCN1C(=O)c2ccc3sc4ccccc4c3c2C1=O [compound 66]
22 | 0.1 (≈ 0.264 µM) | CCCCc1cc2c(c3c1[nH]c1ccc(O)cc13)C(=O)N(CCN(C)C)C2=O [compound 60]
23 | 1.25 (≈ 3.15 µM) | Cc1cc2c(c3c1[nH]c1ccc(O)cc13)C(=O)N(CCN(CCO)CCO)C2=O [compound 91]
24 | 3.13 (≈ 8.61 µM) | O=C1c2ccc3[nH]c4ccc(O)cc4c3c2C(=O)N1CCN1CCCCC1 [compound 33]
25 | 0.4 (≈ 1.09 µM) | CC(C)c1cc2c(c3c1[nH]c1ccc(O)cc13)C(=O)N(CCN(C)C)C2=O [compound 52]
26 | 0.4 (≈ 1.29 µM) | Cc1cc2c(c3c1[nH]c1ccc(O)cc13)C(=O)N(CCN)C2=O [compound 68]
27 | 0.8 (≈ 2.19 µM) | COc1ccc2[nH]c3c(C)c4c(c(C)c3c2c1)C(=O)N(CCN(C)C)C4=O [compound 99]
28 | 0.2 (≈ 0.544 µM) | COc1ccc2[nH]c3c(OC)cc4c(c3c2c1)C(=O)N(CCN(C)C)C4=O [compound 40]

Row | MIC [µg/mL] | Compound
29 | 0.8 (≈ 2.36 µM) | CN(C)CCN1C(=O)c2cc(O)c3[nH]c4ccc(O)cc4c3c2C1=O [compound 41]
30 | 3.13 (≈ 9.28 µM) | Cc1cc(O)cc2c1[nH]c1ccc3c(c12)C(=O)N(CCN(C)C)C3=O [compound 46]
31 | 0.8 (≈ 2.39 µM) | Cc1cc2c(c3c4ccccc4n(C)c13)C(=O)N(CCN(C)C)C2=O [compound 6]
32 | 0.016 (≈ 0.0455 µM) | Cc1c2c(c3c([nH]c4ccc(O)cc43)c1C)C(=O)N(CCN(C)C)C2=O [compound 26]
33 | 3.13 (≈ 9.74 µM) | Cc1c2c(cc3c1[nH]c1ccccc13)C(=O)N(CCN(C)C)C2=O [compound 97]
34 | 2.5 (≈ 7.76 µM) | Cc1cc2c(c3c1oc1ccccc13)C(=O)N(CCN(C)C)C2=O [compound 43]
35 | 6.25 | Cc1cc2c(c3c1[nH]c1ccc(O)cc13)C(=O)N(CC[N+](C)(C)C)C2=O [compound 94]
36 | 0.8 (≈ 2.28 µM) | COc1ccc2c(c1)[nH]c1c(C)cc3c(c12)C(=O)N(CCN(C)C)C3=O [compound 18]
37 | 0.16 (≈ 0.361 µM) | CCN(CC)CCN1C(=O)c2cc(Oc3ccccc3)c3[nH]c4ccc(O)cc4c3c2C1=O [compound 89]
38 | 0.16 (≈ 0.371 µM) | CN(C)CCN1C(=O)c2cc(Oc3ccc(O)cc3)c3[nH]c4ccc(O)cc4c3c2C1=O [compound 86]
39 | 0.31 (≈ 0.817 µM) | CN(C)CCN1C(=O)c2cc(C(C)(C)C)c3[nH]c4ccc(O)cc4c3c2C1=O [compound 54]
40 | 0.16 (≈ 0.409 µM) | CN(C)CCN1C(=O)c2cc(C3CCCC3)c3[nH]c4ccc(O)cc4c3c2C1=O [compound 72]
41 | 3.13 (≈ 9.62 µM) | CN(C)CCN1C(=O)c2ccc3[nH]c4ccc(F)cc4c3c2C1=O [compound 11]
42 | 0.4 (≈ 1.09 µM) | COc1ccc2[nH]c3c(C)cc4c(c3c2c1)C(=O)N(CCNCCO)C4=O [compound 82]
43 | 0.8 (≈ 2.03 µM) | Cc1cc2c(c3c1[nH]c1ccc(O)cc13)C(=O)N(CCN(C(C)C)C(C)C)C2=O [compound 53]
44 | 0.2 (≈ 0.591 µM) | Cc1cc2c(c3c1sc1ccccc13)C(=O)N(CCN(C)C)C2=O [compound 47]
45 | 1.25 (≈ 3.08 µM) | CN(C)CCN1C(=O)c2cc(C3CCCCC3)c3[nH]c4ccc(O)cc4c3c2C1=O [compound 63]
46 | 0.08 (≈ 0.218 µM) | CCOc1cc2c(c3c1[nH]c1ccc(O)cc13)C(=O)N(CCN(C)C)C2=O [compound 80]
47 | 2.5 (≈ 6.59 µM) | Cc1cc2c(c3c1[nH]c1ccc(O)cc13)C(=O)N(CCN1CCOCC1)C2=O [compound 88]
48 | 0.8 (≈ 2.12 µM) | CN(C)CCN1C(=O)c2cc(C3(C)CC3)c3[nH]c4ccc(O)cc4c3c2C1=O [compound 73]
49 | 3.13 (≈ 8.91 µM) | CCn1c2ccc(O)cc2c2c3c(ccc21)C(=O)N(CCN(C)C)C3=O [compound 29]
50 | 3.2 (≈ 6.76 µM) | COc1cc2c(cc1Br)[nH]c1c(CN(C)C)cc3c(c12)C(=O)N(CCN(C)C)C3=O [compound 93]
51 | 3.13 (≈ 9.28 µM) | COc1cccc2c1[nH]c1ccc3c(c12)C(=O)N(CCN(C)C)C3=O [compound 13]
52 | 0.63 (≈ 1.95 µM) | COc1ccc2[nH]c3c(C)cc4c(c3c2c1)C(=O)N(CCN)C4=O [compound 65]

Row | MIC [µg/mL] | Compound
53 | 0.16 (≈ 0.422 µM) | CC(=O)Oc1ccc2[nH]c3c(C)cc4c(c3c2c1)C(=O)N(CCN(C)C)C4=O [compound 45]
54 | 2 (≈ 5.11 µM) | CN(C)CCN1C(=O)c2cc(C(F)(F)F)c3[nH]c4ccc(O)cc4c3c2C1=O [compound 67]
55 | 0.16 (≈ 0.455 µM) | Cc1cc2c(c3c1[nH]c1ccc(O)cc13)C(=O)N(CCNC(C)C)C2=O [compound 76]
56 | 0.2 (≈ 0.547 µM) | CCCc1cc2c(c3c1[nH]c1ccc(O)cc13)C(=O)N(CCN(C)C)C2=O [compound 51]
57 | 1.56 (≈ 4.62 µM) | COc1ccc2c(c1)[nH]c1ccc3c(c12)C(=O)N(CCN(C)C)C3=O [compound 14]
58 | 0.2 (≈ 0.596 µM) | CCc1cc2[nH]c3ccccc3c2c2c1C(=O)N(CCN(C)C)C2=O [compound 4]
59 | 0.32 (≈ 0.881 µM) | C=Cc1cc2c(c3c1[nH]c1ccc(OC)cc13)C(=O)N(CCN(C)C)C2=O [compound 92]
60 | 0.16 (≈ 0.362 µM) | Cc1cc2c(c3c1[nH]c1ccc(OC(=O)c4ccncc4)cc13)C(=O)N(CCN(C)C)C2=O [compound 83]
61 | 0.8 (≈ 2.25 µM) | CN(C)CCN1C(=O)c2ccc3c(c2C1=O)c1cc(Cl)ccc1n3C [compound 10]
62 | 1 (≈ 2.72 µM) | COCc1cc2c(c3c1[nH]c1ccc(O)cc13)C(=O)N(CCN(C)C)C2=O [compound 57]
63 | 1.56 (≈ 3.97 µM) | Cc1cc2c(c3c1[nH]c1ccc(O)cc13)C(=O)N(CCN1CCN(C)CC1)C2=O [compound 90]
64 | 0.63 (≈ 1.87 µM) | CNCCN1C(=O)c2cc(C)c3[nH]c4ccc(OC)cc4c3c2C1=O [compound 64]
65 | 0.08 (≈ 0.18 µM) | COc1ccc(Oc2cc3c(c4c2[nH]c2ccc(O)cc24)C(=O)N(CCN(C)C)C3=O)cc1 [compound 85]
66 | 1.6 (≈ 3.56 µM) | COc1ccc2[nH]c3c(-c4ccc(F)cc4F)cc4c(c3c2c1)C(=O)N(CCN(C)C)C4=O [compound 79]
67 | 3.13 (≈ 9.16 µM) | CN(C)CCN1C(=O)c2ccc3[nH]c4cc(Cl)ccc4c3c2C1=O [compound 8]
68 | 2.5 (≈ 6.75 µM) | Cc1cc2c(c3c1S(=O)(=O)c1ccccc1-3)C(=O)N(CCN(C)C)C2=O [compound 48]
69 | 0.8 (≈ 2.18 µM) | COc1ccc2[nH]c3cc(OC)c4c(c3c2c1)C(=O)N(CCN(C)C)C4=O [compound 36]
70 | 3.13 (≈ 7.98 µM) | COc1ccc2[nH]c3ccc4c(c3c2c1)C(=O)N(CCN1CCN(C)CC1)C4=O [compound 34]
71 | 0.16 (≈ 0.455 µM) | CCN(C)CCN1C(=O)c2cc(C)c3[nH]c4ccc(O)cc4c3c2C1=O [compound 81]
72 | 0.63 (≈ 1.71 µM) | CSc1cc2c(c3c1[nH]c1ccc(O)cc13)C(=O)N(CCN(C)C)C2=O [compound 77]
73 | 0.2 (≈ 0.451 µM) | COc1cc2c(c3c1[nH]c1ccc(OCc4ccccc4)cc13)C(=O)N(CCN(C)C)C2=O [compound 37]
74 | 0.2 (≈ 0.523 µM) | CCN(CC)CCN1C(=O)c2cc(C)c3sc4ccc(O)cc4c3c2C1=O [compound 62]
75 | 2 (≈ 5.89 µM) | CN(C)CCN1C(=O)c2c(O)cc3[nH]c4ccc(O)cc4c3c2C1=O [compound 35]
76 | 0.125 (≈ 0.373 µM) | Cc1c2c(c3c([nH]c4ccccc43)c1C)C(=O)N(CCN(C)C)C2=O [compound 5]
